US7947657B2, “Method for selective inhibition of human N-myc gene in N-myc expressing tumors through antisense and antigen peptido-nucleic acids (PNA)” (Universita Degli Studi Di Parma, priority 2003, dated 2011)
Entries after “also recorded” stand apart in the source; their conditions may differ.

Tests used:
GI-LI-N cells [1] = test: flow cytometric cell cycle analysis on GI-LI-N cells; type: cell-based, human
Text: Moreover, the number of cells in sub-G1 phase with a hypodiploic DNA content (lower number of chromosomes than diploid DNA, i.e. 2n) increases from 3 to 22%.

GI-LI-N cells [2] = test: cell growth/proliferation test, cell counting and vitality by tryphan blue exclusion; type: cell-based, human; conditions: for maximum inhibition effect on cell growth / inhibition effect in proliferation tests: GI-LI-N cells; for maximum inhibition effect on cell growth: 48 hours after treatment
Protocol: (§1) In order to show the effectiveness of the peptide nucleic acids selected by the Applicant, the latter has carried out experimental tests by selecting four neuroblastoma cell lines: GI-LI-N, IMR-32 where N-myc gene is amplified and overexpressed; and GI-CA-N, GI-ME-N where N-myc gene is not amplified and is not expressed.
(§2) In threefold tests using plates with 24 wells, 1.0×10^5 cells have been introduced into the first wells with 0.5 ml of RPMI1640 containing 10% of FBS and 2 mM of […].
(§3) Cells have been incubated for 24 hours so as to let them adhere to the base of the wells.
(§4) Then, in order to assess the optimal concentration for cell growth inhibition, peptide nucleic acid has been added to GI-LI-N cells in concentration of 10, 20, 40 and 60 μM for 5′-UTR antisense PNA, whereas for sense and antisense anti-gene PNAs in concentrations of 1, 2, 5, 10 and 20 μM on GI-LI-N and IMR-32 cells-
(§5) Then, in order to assess the effects of the treatments, cells have been collected and counted 24, 48 and 72 hours after treatment.
(§6) Cells counting and vitality has been determined using colorimetric exclusion method (tryphan blue dye).

GI-LI-N cells [3] = test: cell entry and intracellular localization by fluorescence microscopy of rhodamine-conjugated PNA; type: cell-based, human
Protocol: (§7) In order to assess the ability of antisense PNAs and of anti-gene PNAs to get into human neuroblastoma cells and to analyze the subsequent intracellular localization, the Applicant has used four cell lines GI-LI-N and IMR-32, GI-CA-N and GI-ME-N- and has treated them for 30 minutes to 24 hours with 20 μM of antisense or sense PNA conjugated with rhodamine in 5′. Anti-gene PNAs were further conjugated with NLS in 3′.

GI-CA-N cells [4] = test: as above; type: cell-based, human
Protocol: as §7

N-MYC (protein) = test: production of N-MYC protein by Western Blotting in GI-LI-N cell line; type: cell-based, human; conditions: for N-MYC protein level (Western Blotting): 20 μM, GI-LI-N
GI-CA-N cells [5] = test: cell growth/proliferation test, cell counting and vitality by tryphan blue exclusion; type: cell-based, human; conditions: same conditions
Protocol: as §1, §2, §3
In order to assess the specificity of sense and antisense anti-gene PNAs, GI-ME-N and GI-CA-N (in which N-myc gene is not amplified and is not […] for sense anti-gene PNA).
as §5, §6

GI-LI-N cells [6] = test: microscopic analysis of morphologic changes/differentiation of GI-LI-N cells; type: cell-based, human; conditions: 20 μM
Protocol: In order to assess the differentiation of GI-LI-N cells towards neuronal cells, said cell line has been treated with 20 μM antisense PNA, whereby morphologic changes have been detected by means of microscopic analysis.
Microscope assessment has been carried 36 and 48 hours after GI-LI-N cell growth in the presence or absence of 20 μM antisense PNA.

IMR-32 cells [7] = test: cell growth/proliferation test, cell counting and vitality by tryphan blue exclusion; type: cell-based, human; conditions: 10 μM
Protocol: as §1, §2, §3, §4, §5, §6

HT29 cells = test: cell growth/proliferation test in colon carcinoma cells; type: cell-based; conditions: 10 μM
Protocol: (§8) The treatment with 10 μM sense anti-gene PNA has also been carried out in HT29 cells (deriving from colon carcinoma) and in HeLa cells (deriving from cervical carcinoma) expressing N-myc gene.

HeLa cells = test: cell growth/proliferation test in cervical carcinoma cells; type: cell-based; conditions: 10 μM
Protocol: as §8

IMR-32 cells [8] = test: cytofluorimetric cell cycle analysis in IMR-32 cells; type: cell-based, human; conditions: 10 μM; for cells in G2/M / cells in Go/G1 / cells in S phase: IMR-32
Protocol: A cytofluorimetric analysis in IMR-32 cells 24 and 48 hours after the treatment with sense anti-gene PNA in a concentration of 10 μM, induced a cell accumulation in Go/G1 (from 39% to 53% after 24 hours; from 31% to 53% after 48 hours) and decrease in G2/M (from 17% to 6% after 24 hours; from 25% to 9% after 48 hours) and S phase (from 45 to 41% after 24 hours; from 44% to 39% after 48 hours).

N-MYC protein = test: production of N-MYC protein by Western Blotting in IMR-32 cell line; type: cell-based, human; conditions: 10 μM
Protocol: In further tests on sense anti-gene PNA, the production of N-MYC protein was assessed by using Western Blotting in IMR-32 cell line after 3 hours of treatment with 10 μM sense anti-gene PNA. A reduction of 50% of protein level has been detected after 3 hours of treatment with sense anti-gene PNA.

GI-ME-N cells = test: cell growth/proliferation test, cell counting and vitality by tryphan blue exclusion; type: cell-based, human; conditions: 10 μM; GI-ME-N cells (N-myc not amplified, not expressed); same conditions
Protocol: as §1, §2, §3
In order to assess the specificity of sense and antisense anti-gene PNAs, GI-ME-N and GI-CA-N (in which N-myc gene is not amplified and is not expressed) have been treated with sense and antisense anti-gene PNA in a concentration of […] (optimal concentration selected for sense anti-gene PNA).
as §5, §6

N-myc transcript = test: production of N-myc transcript by PCR of cDNA from GI-LI-N cells; type: cell-based, human; conditions: 10 μM, 30 PCR cycles, easily detected in untreated cells
Protocol: The production of N-myc transcript was assessed before and after […] treatment with 10 μM sense anti-gene PNA by amplification in PCR of cDNA obtained from 250 ng of mRNA of GI-LI-N cells. The following primers have been used: sense SEQ ID NO: 5 (ExonE 2, by 2366); antisense SEQ ID NO: 6(Exon 3, by 5095) (Genbank M13241). PCR has been carried out with 30 reaction cycles.

[9] = same test conditions used for sense anti-gene PNA
[10] = 10 μM, cell line not restated (GI-LI-N)

antisense PNA: antisense peptide nucleic acid (bp 135-150, SEQ ID NO: 1) complementary to one sequence in 5′-UTR region of N-myc gene (antisense TCCACCCAGCGCGTCC; all peptide nucleic acid (PNA))
cells in sub-G1 phase with hypodiploic DNA content (GI-LI-N cells [1]; 20 μM, GI-LI-N, 36 hours after treatment, from 3 untreated): 22%
cells in G2 (GI-LI-N cells [1]; 20 μM, GI-LI-N, 36 hours after treatment, from 13 untreated): 6%
cells in G0/G1 (GI-LI-N cells [1]; 20 μM, GI-LI-N, 36 hours after treatment, from 34% untreated): 57%
cells in S phase (GI-LI-N cells [1]; 20 μM, GI-LI-N, 36 hours after treatment, from 53% untreated): 37%
maximum inhibition effect on cell growth (GI-LI-N cells [2]; 20 μM): 70%
time after treatment at which intracytoplasmatic fluorescence can already be measured (GI-LI-N cells [3]; 20 μM PNA conjugated with rhodamine in 5′, GI-LI-N): ≤ 30 min
time to maximum fluorescence intensity (GI-LI-N cells [3]; 20 μM rhodamine-conjugated PNA, GI-LI-N, level then constant for 24 hours): 6 h
intracellular localization of fluorescence (GI-LI-N cells [3]; 20 μM rhodamine-conjugated PNA, cell lines of b80): High intracytoplasmatic values
time after treatment at which intracytoplasmatic fluorescence can already be measured (GI-CA-N cells [4]; 20 μM PNA conjugated with rhodamine in 5′): ≤ 30 min
time to maximum fluorescence intensity (GI-CA-N cells [4]; 20 μM rhodamine-conjugated PNA, level then constant for 24 hours): 6 h
N-MYC protein level (Western Blotting) (N-MYC (protein); after 24 hours): evident reduction
N-MYC protein level (Western Blotting) (N-MYC (protein); after 72 hours): reduction decreases
inhibition effect on cell growth (GI-CA-N cells [5]; 20 μM, GI-CA-N cells (N-myc not amplified)): do not show any inhibition effect
morphologic changes (microscope) (GI-LI-N cells [6]; after 36 hours): less uniform distribution than control cells
morphologic changes (microscope) (GI-LI-N cells [6]; after 48 hours): tend to form small cell aggregates

antisense anti-gene PNA: antisense anti-gene PNA (SEQ ID NO: 4) complementary to a sequence of exon 2 N-myc gene, NLS-conjugated (antisense AGATCATGCCCGGCAT; all peptide nucleic acid (PNA); SV40 nuclear localization signal peptide conjugated at 3' end, further chemistry not fully specified)
inhibition effect in proliferation tests (GI-LI-N cells [2]; 10 μM): have not shown any inhibition effect; also recorded: do not show any inhibition effect
inhibition effect in proliferation tests (IMR-32 cells [7]; IMR-32 cells): have not shown any inhibition effect; also recorded: do not show any inhibition effect

mutated anti-gene PNA: mutated PNA containing the substitution of three bases (SEQ ID NO: 7), specificity control for sense anti-gene PNA (GTGCCGAGCATGGTCT; all peptide nucleic acid (PNA))
inhibition effect in cell vitality (IMR-32 cells [7]; [9]): No inhibition effect
inhibition effect in proliferation tests (HT29 cells): have not shown any inhibition effect
inhibition effect in proliferation tests (HeLa cells): have not shown any inhibition effect
inhibition effect in cell cycle (IMR-32 cells [8]; [9]): No inhibition effect
inhibition effect in the amount of N-MYC protein (N-MYC protein; [9]): No inhibition effect

mutated antisense PNA: mutated PNA containing the substitution of three bases (SEQ ID NO: 2), specificity control for antisense PNA (CCCACTCAGCGCGCCC; all peptide nucleic acid (PNA))
inhibition effect in cell cycle (GI-LI-N cells [1]; [10]): no inhibition effect
inhibition effect in cell vitality (GI-LI-N cells [2]; [10]): no inhibition effect
inhibition effect in proliferation tests (GI-LI-N cells [2]; 20 μM): have not shown any inhibition effect
inhibition effect in the amount of N-MYC protein (N-MYC (protein); [10]): no inhibition effect

sense anti-gene PNA: sense anti-gene PNA (SEQ ID NO: 3) complementary to a sequence of exon 2 N-myc gene, NLS-conjugated (ATGCCGGGCATGATCT; all peptide nucleic acid (PNA); SV40 nuclear localization signal peptide conjugated at 3' end, further chemistry not fully specified)
maximum inhibition effect on cell growth (GI-LI-N cells [2]; 10 μM): 90%
maximum inhibition effect on cell growth (IMR-32 cells [7]; IMR-32 cells, 48 hours after treatment): 80%
maximum inhibition effect on cell growth (HT29 cells; 48 hours after treatment): 70%
inhibition effect on cell growth (GI-ME-N cells): do not show any inhibition effect
maximum inhibition effect on cell growth (HeLa cells; 24 hours after treatment): 70%
cells in G2/M (IMR-32 cells [8]; after 24 hours, from 17% untreated): 6%
cells in Go/G1 (IMR-32 cells [8]; after 24 hours, from 39% untreated): 53%
cells in S phase (IMR-32 cells [8]; after 24 hours, from 45 untreated): 41%
cells in G2/M (IMR-32 cells [8]; after 48 hours, from 25% untreated): 9%
cells in Go/G1 (IMR-32 cells [8]; after 48 hours, from 31% untreated): 53%
cells in S phase (IMR-32 cells [8]; after 48 hours, from 44% untreated): 39%
reduction of N-MYC protein level (Western Blotting) (N-MYC protein; IMR-32, after 3 hours of treatment): 50%
inhibition effect on cell growth (GI-CA-N cells [5]; 10 μM, GI-CA-N cells (N-myc not amplified, not expressed)): do not show any inhibition effect
PCR product of N-myc transcript (N-myc transcript): cannot be detected
